The structures appear in SMILES notation.

Consider 24 molecules from patent publication US20240025906A1 (NEURON23, INC., priority 2022, published 2024).

In one assay the target is T1, TYK2 JH2 (Homo sapiens, UniProt P29597).
T1 construct: purchased DiscoverX (KINOMEscan KdELECT service); host or cells: E. coli BL21-derived (T7 phage display) or HEK-293
The assay is described as follows: TYK2 JH2 binding assay (KINOMEscan KdELECT competitive binding). Conditions: TYK2 JH2 domain, DiscoverX KINOMEscan KdELECT (Assay A); read-out: Biochemical TYK2_DiscoverX_JH2_BND_Kd. The method, boiled down: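 JH2-domain fragment, expressed as T7 phage tag in BL21-derived E. coli or DNA-tagged from HEK-293, competed with test compound against bead-immobilized biotinylated ligand in binding buffer (0.9% DMSO). 1 h shaking at room temperature; bound kinase eluted with 0.5 μM free ligand and quantified by qPCR. Kd from 11-point 3-fold dilutions.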

For assay [1], the system named is JAK1/TYK2 pSTAT5 (Tyr694/699) in THP-1 cell line. The assay is described as follows: IFNa-stimulated JAK1/TYK2 pSTAT5 (Tyr694/699) inhibition cellular assay, AlphaLISA. The conditions noted are these: Homo sapiens; THP-1 cells, IFNa-stimulated, AlphaLISA (Assay B); read-out: Cellular_THP1_IFNa-pSTATS_TYK2. It is filed as cell-based. The method, boiled down: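 THP-1, 2e4 cells/well, HBSS; cpd 1 h 37 °C (10000–0.04 nM final, 6-fold, 8 pt); IFNa 100 ng/mL added, 30 min; lyse, freeze −80 °C; pSTAT5 AlphaLISA, 615 nm; 4PL IC50, bottom fixed 0, slope −1.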

T1 sequence (P29597 589-875 limits assumed): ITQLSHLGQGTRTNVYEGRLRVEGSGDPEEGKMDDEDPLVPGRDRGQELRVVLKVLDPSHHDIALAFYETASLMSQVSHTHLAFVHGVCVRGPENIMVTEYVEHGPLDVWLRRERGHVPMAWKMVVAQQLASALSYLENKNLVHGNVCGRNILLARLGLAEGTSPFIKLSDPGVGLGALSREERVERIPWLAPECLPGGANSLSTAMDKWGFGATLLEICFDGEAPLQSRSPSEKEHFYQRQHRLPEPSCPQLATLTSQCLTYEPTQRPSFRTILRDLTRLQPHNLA

For `CNc1ncc(-c2nc3ccc(N4CC5CN(C)CC(C4)O5)cn3n2)c2cc(NC(=O)C3CC3)ncc12` [Example 504, N-(5-(6-(7-methyl-9-oxa-3,7-diazabicyclo[3.3.1]nonan-3-yl)-[1,2,4]triazolo[1,5-a]pyridin-2-yl)-8-(methylamino)-2,7-naphthyridin-3-yl)cyclopropanecarboxamide], on TYK2 JH2, the Kd was not above 100 nM. In addition, the IC50 in assay [1] was not above 500 nM.
Take `CNc1ncc(-c2nc3c(F)cc(C)cn3n2)c2cc(NC(=O)C3CC3)ncc12` [Example 505, N-(5-(8-fluoro-6-methyl-[1,2,4]triazolo[1,5-a]pyridin-2-yl)-8-(methylamino)-2,7-naphthyridin-3-yl)cyclopropanecarboxamide]: the Kd at TYK2 JH2 is not above 100 nM. In addition, the IC50 in assay [1] was not above 500 nM.
Taken in the same sequence, the figures for `CCO/C=C\c1cccc2nc(-c3cnc(NC)c4cnc(NC(=O)C5CC5)cc34)nn12` [Example 506, (Z)—N-(5-(5-(2-ethoxyvinyl)-[1,2,4]triazolo[1,5-a]pyridin-2-yl)-8-(methylamino)-2,7-naphthyridin-3-yl)cyclopropanecarboxamide] were not above 100 nM and not above 500 nM.
For the molecule `CCOCCc1cccc2nc(-c3cnc(NC)c4cnc(NC(=O)C5CC5)cc34)nn12` [Example 507, N-(5-(5-(2-ethoxyethyl)-[1,2,4]triazolo[1,5-a]pyridin-2-yl)-8-(methylamino)-2,7-naphthyridin-3-yl)cyclopropanecarboxamide], the Kd on TYK2 JH2 was not above 100 nM. For the same molecule, in assay [1], the IC50 is not above 500 nM.
`CNc1ncc(-c2nc3ccc(N4CCO[C@@H](C)C4)c(F)n3n2)c2cc(NC(=O)C3CC3)ncc12` [Example 508, (S)—N-(5-(5-fluoro-6-(2-methylmorpholino)-[1,2,4]triazolo[1,5-a]pyridin-2-yl)-8-(methylamino)-2,7-naphthyridin-3-yl)cyclopropanecarboxamide]: on TYK2 JH2, the Kd was not above 100 nM. Besides, in assay [1], the IC50 was not above 500 nM.
For `CNc1ncc(-c2nc3ccc(N4CCO[C@@H](C)C4)c(Cl)n3n2)c2cc(NC(=O)C3CC3)ncc12` [Example 509, (S)—N-(5-(5-chloro-6-(2-methylmorpholino)-[1,2,4]triazolo[1,5-a]pyridin-2-yl)-8-(methylamino)-2,7-naphthyridin-3-yl)cyclopropanecarboxamide], in that order: not above 100 nM and not above 500 nM.
Regarding `CNc1ncc(-c2nc3ccc(OCCS(C)(=O)=O)cn3n2)c2cc(NC(=O)C3CC3)ncc12` [Example 510, N-(8-(methylamino)-5-(6-(2-(methylsulfonyl)ethoxy)-[1,2,4]triazolo[1,5-a]pyridin-2-yl)-2,7-naphthyridin-3-yl)cyclopropanecarboxamide], the Kd on TYK2 JH2 was not above 100 nM. In assay [1], the IC50 is not above 500 nM.
Consider `[2H]C([2H])([2H])Nc1ncc(-c2nc3ccc(OC)cn3n2)c2cc(NC(=O)C3CC3)ncc12` [Example 511, N-(5-(6-methoxy-[1,2,4]triazolo[1,5-a]pyridin-2-yl)-8-((methyl-d3)amino)-2,7-naphthyridin-3-yl)cyclopropanecarboxamide], for which the Kd on TYK2 JH2 is not above 100 nM. Moreover, in assay [1], the IC50 was not above 500 nM.
Consider `[2H]C([2H])([2H])Nc1ncc(-c2nc3ccc(N4CCO[C@H](C)C4)cn3n2)c2cc(NC(=O)C3CC3)ncc12` [Example 512, (R)-N-(8-((methyl-d3)amino)-5-(6-(2-methylmorpholino)-[1,2,4]triazolo[1,5-a]pyridin-2-yl)-2,7-naphthyridin-3-yl)cyclopropanecarboxamide], for which the Kd on TYK2 JH2 was not above 100 nM. Also, in assay [1], the IC50 was not above 500 nM.
Taken in the same sequence, the figures for `[2H]C([2H])([2H])Nc1ncc(-c2nc3ccc(N4CCC(F)(F)CC4)cn3n2)c2cc(NC(=O)C3CC3)ncc12` [Example 513, N-(5-(6-(4,4-difluoropiperidin-1-yl)-[1,2,4]triazolo[1,5-a]pyridin-2-yl)-8-((methyl-d3)amino)-2,7-naphthyridin-3-yl)cyclopropanecarboxamide] were not above 100 nM and not above 500 nM.
Take `CCNc1ncc(-c2nc3ccc(N4CCOCC4)cn3n2)c2cc(NC(=O)C3CC3)ncc12` [Example 514, N-(8-(ethylamino)-5-(6-morpholino-[1,2,4]triazolo[1,5-a]pyridin-2-yl)-2,7-naphthyridin-3-yl)cyclopropanecarboxamide]: the Kd on TYK2 JH2 is not above 100 nM. The IC50 in assay [1] is not above 500 nM.
With `CCNc1ncc(-c2nc3ccc(N4CCO[C@@H](C)C4)cn3n2)c2cc(NC(=O)C3CC3)ncc12` [Example 515, (S)-N-(8-(ethylamino)-5-(6-(2-methylmorpholino)-[1,2,4]triazolo[1,5-a]pyridin-2-yl)-2,7-naphthyridin-3-yl)cyclopropanecarboxamide], the Kd on TYK2 JH2 was not above 100 nM. For the same molecule, in assay [1], the IC50 is not above 500 nM.
On to `CCNc1ncc(-c2nc3ccc(OC)cn3n2)c2cc(NC(=O)C3CC3)ncc12` [Example 516, N-(8-(ethylamino)-5-(6-methoxy-[1,2,4]triazolo[1,5-a]pyridin-2-yl)-2,7-naphthyridin-3-yl)cyclopropanecarboxamide], for which the Kd on TYK2 JH2 was not above 100 nM. The IC50 in assay [1] is not above 500 nM.
With `CCNc1ncc(-c2nc3ccc(C)cn3n2)c2cc(NC(=O)C3CC3)ncc12` [Example 517, N-(8-(ethylamino)-5-(6-methyl-[1,2,4]triazolo[1,5-a]pyridin-2-yl)-2,7-naphthyridin-3-yl)cyclopropanecarboxamide], the Kd at TYK2 JH2 was not above 100 nM. Moreover, the IC50 in assay [1] was not above 500 nM.
With `O=C(Nc1cc2c(-c3nc4ccc(N5CCOCC5)cn4n3)cnc(NC3CC3)c2cn1)C1CC1` [Example 518, N-(8-(cyclopropylamino)-5-(6-morpholino-[1,2,4]triazolo[1,5-a]pyridin-2-yl)-2,7-naphthyridin-3-yl)cyclopropanecarboxamide], the Kd at TYK2 JH2 is not above 100 nM. Further, in assay [1], the IC50 is not above 500 nM.
In the case of `O=C(Nc1cc2c(-c3nc4ccccn4n3)cnc(NC3CC3)c2cn1)C1CC1` [Example 519, N-(5-([1,2,4]triazolo[1,5-a]pyridin-2-yl)-8-(cyclopropylamino)-2,7-naphthyridin-3-yl)cyclopropanecarboxamide], the Kd on TYK2 JH2 was not above 100 nM. Moreover, in assay [1], the IC50 was more than 500 nM.
As for `CNc1ncc(-c2nc3ccc(OC)cn3n2)c2cc(NC(=O)[C@H]3C[C@H]3C)ncc12` [Example 520, (1S,2R)—N-(5-(6-methoxy-[1,2,4]triazolo[1,5-a]pyridin-2-yl)-8-(methylamino)-2,7-naphthyridin-3-yl)-2-methylcyclopropane-1-carboxamide], the Kd at TYK2 JH2 was not above 100 nM. For the same molecule, the IC50 in assay [1] is not above 500 nM.
In the case of `CNc1ncc(-c2nc3ccc(OC)cn3n2)c2cc(Nc3ccccn3)ncc12` [Example 523, 4-(6-methoxy-[1,2,4]triazolo[1,5-a]pyridin-2-yl)-N^1-methyl-N^6-(pyridin-2-yl)-2,7-naphthyridine-1,6-diamine], the Kd on TYK2 JH2 is not above 100 nM. For the same molecule, in assay [1], the IC50 was not above 500 nM.
`CNc1ncc(-c2nc3ccc(OC)cn3n2)c2cc(Nc3cccc(OC)n3)ncc12` [Example 524, 4-(6-methoxy-[1,2,4]triazolo[1,5-a]pyridin-2-yl)-N^6-(6-methoxypyridin-2-yl)-N^1-methyl-2,7-naphthyridine-1,6-diamine]: the Kd on TYK2 JH2 is not above 100 nM. For the same molecule, the IC50 in assay [1] is not above 500 nM.
In the case of `CNc1ncc(-c2nc3ccc(N4CCOCC4)cn3n2)c2cc(NC(=O)[C@H]3C[C@H]3C)ncc12` [Example 525, (1S,2R)-2-methyl-N-(8-(methylamino)-5-(6-morpholino-[1,2,4]triazolo[1,5-a]pyridin-2-yl)-2,7-naphthyridin-3-yl)cyclopropane-1-carboxamide], at TYK2 JH2, the Kd was not above 100 nM. Further, the IC50 in assay [1] was not above 500 nM.
In the case of `CNc1ncc(-c2nc3ccc(N4CCOCC4)cn3n2)c2cc(NC(=O)C3(C)CC3)ncc12` [Example 526, 1-methyl-N-(8-(methylamino)-5-(6-morpholino-[1,2,4]triazolo[1,5-a]pyridin-2-yl)-2,7-naphthyridin-3-yl)cycloproapne-1-carboxamide], the Kd at TYK2 JH2 was not above 100 nM. In addition, the IC50 in assay [1] is not above 500 nM.
`CNc1ncc(-c2nc3ccc(N4CCOCC4)cn3n2)c2cc(NC(=O)C3(F)CC3)ncc12` [Example 527, 1-fluoro-N-(8-(methylamino)-5-(6-morpholino-[1,2,4]triazolo[1,5-a]pyridin-2-yl)-2,7-naphthyridin-3-yl)cyclopropane-1-carboxamide]: the Kd at TYK2 JH2 was not above 100 nM. Besides, the IC50 in assay [1] was not above 500 nM.
For the molecule `CNc1ncc(-c2nc3ccc(N4CCOCC4)cn3n2)c2cc(NC(=O)C3CCC3)ncc12` [Example 528, N-(8-(methylamino)-5-(6-morpholino-[1,2,4]triazolo[1,5-a]pyridin-2-yl)-2,7-naphthyridin-3-yl)cyclobutanecarboxamide], the Kd on TYK2 JH2 was not above 100 nM. Besides, the IC50 in assay [1] is not above 500 nM.
On to `CNc1ncc(-c2nc3ccc(N4CCOCC4)cn3n2)c2cc(NC(=O)C3(OC)CC3)ncc12` [Example 529, 1-methoxy-N-(8-(methylamino)-5-(6-morpholino-[1,2,4]triazolo[1,5-a]pyridin-2-yl)-2,7-naphthyridin-3-yl)cyclopropane-1-carboxamide], for which the Kd at TYK2 JH2 is not above 100 nM. Further, the IC50 in assay [1] is not above 500 nM.
